Measurements reported in patent publication EP0125052B1, “Dopaminergic carbostyrils and a process for preparing them” (SMITHKLINE BECKMAN CORPORATION, priority 1983, dated 1984).
One block for each compound: values may come before it.

Experiments:
D2 = D2 (Oryctolagus cuniculus, UniProt G1T1Q0); assay: cell-based
[1] = test system: spontaneously hypertensive rat (SHR); assay: spontaneously hypertensive rat (SHR) protocol; format: in vivo
anesthetized dog = anesthetized dog protocol (renal dog screen) measuring renal and cardiovascular parameters; format: in vivo; design: decreased heart rate / arterial blood pressure: dose or concentration left out as unconfirmed
Excerpt: The prior art dopaminergic agent, dopamine, is used as a positive control.

Chain of D2 (G1T1Q0 1-443): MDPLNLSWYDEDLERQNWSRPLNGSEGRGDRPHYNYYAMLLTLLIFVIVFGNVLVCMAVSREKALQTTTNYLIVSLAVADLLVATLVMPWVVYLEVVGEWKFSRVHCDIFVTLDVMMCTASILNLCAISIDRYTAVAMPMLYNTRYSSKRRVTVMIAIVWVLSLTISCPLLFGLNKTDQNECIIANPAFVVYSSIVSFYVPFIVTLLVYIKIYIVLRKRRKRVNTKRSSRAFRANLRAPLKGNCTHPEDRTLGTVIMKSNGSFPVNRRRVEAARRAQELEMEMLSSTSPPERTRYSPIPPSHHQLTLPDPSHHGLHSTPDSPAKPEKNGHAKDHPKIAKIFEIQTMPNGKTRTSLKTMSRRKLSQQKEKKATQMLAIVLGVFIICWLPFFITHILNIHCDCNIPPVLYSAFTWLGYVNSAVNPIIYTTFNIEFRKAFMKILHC

- EC50 (D2): 12 nM
Structure (SMILES): CCCN(CCc1ccc(O)cc1)CCc1ccc(O)c2[nH]c(=O)ccc12 [5-[N-n-propyl-N-(p-hydroxyphenethyl)aminoethyl)-8-hydroxycarbostyril]

Structure (SMILES): CCCN(CCC)CCc1ccc(O)c2[nH]c(=O)ccc12 [5-di-n-propylaminoethyl-8-hydroxycarbostyril]
- systolic hypertension ([1]; rat test, 12.5, 25 and 50 mg/kg, i.p.): decreased systolic hypertension
- renal blood flow (anesthetized dog; dog protocol, 3 and 30 pg/kg/min infusion): increased renal blood flow

Structure (SMILES): Cl.NCCc1ccc(O)c2[nH]c(=O)ccc12 [5-aminoethyl-8-hydroxycarbostyril hydrochloride]
- systolic blood pressure ([1]; SHR, 25 mg/kg intraperitoneally administered): lowered systolic blood pressure
- ED15 (anesthetized dog; Canis lupus familiaris, read-out: RVR-ED15): 1.8 µg/kg
- arterial blood pressure (anesthetized dog; by infusion, renal dog screen): -8%
- decreased heart rate (anesthetized dog; by infusion, renal dog screen): 22.5%
